In one series the test system is 22Rv1 cells. As to the kind of experiment: Western blot analysis of apoptosis in 22Rv1 cells. Format: cell-based. Particulars: phenol red-free medium+10% CS-FBS, 24 h. An excerpt: A) The 22Rv1 cells express substantial level of AR-Vs, which include AR-V7 and other AR variants lacking the LBD. The ARs were probed by N-terminal directed AR antibody (N20, Santa Cruz); B) The 22Rv1 cells were androgen-starved (in phenol red-free medium+10% CS-FBS) for 3 days to ensure the full-length AR expressed in 22Rv1 are not activated. The 22Rv1 cells were subsequently co-transfected with PSA-luc and pRL-TK plasmids. […] Cells in phenol red-free medium+10% CS-FBS were exposed to DMSO or compounds for 24 h and harvested for Western blot analysis.
(In western blotting, separated proteins are transferred to a membrane and probed.)

Series [1] deals with T1, H874Y mutant of full-length AR in 22Rv1 cells (Homo sapiens, UniProt P10275, H875Y).
T1 sequence (P10275 1-920 H875Y): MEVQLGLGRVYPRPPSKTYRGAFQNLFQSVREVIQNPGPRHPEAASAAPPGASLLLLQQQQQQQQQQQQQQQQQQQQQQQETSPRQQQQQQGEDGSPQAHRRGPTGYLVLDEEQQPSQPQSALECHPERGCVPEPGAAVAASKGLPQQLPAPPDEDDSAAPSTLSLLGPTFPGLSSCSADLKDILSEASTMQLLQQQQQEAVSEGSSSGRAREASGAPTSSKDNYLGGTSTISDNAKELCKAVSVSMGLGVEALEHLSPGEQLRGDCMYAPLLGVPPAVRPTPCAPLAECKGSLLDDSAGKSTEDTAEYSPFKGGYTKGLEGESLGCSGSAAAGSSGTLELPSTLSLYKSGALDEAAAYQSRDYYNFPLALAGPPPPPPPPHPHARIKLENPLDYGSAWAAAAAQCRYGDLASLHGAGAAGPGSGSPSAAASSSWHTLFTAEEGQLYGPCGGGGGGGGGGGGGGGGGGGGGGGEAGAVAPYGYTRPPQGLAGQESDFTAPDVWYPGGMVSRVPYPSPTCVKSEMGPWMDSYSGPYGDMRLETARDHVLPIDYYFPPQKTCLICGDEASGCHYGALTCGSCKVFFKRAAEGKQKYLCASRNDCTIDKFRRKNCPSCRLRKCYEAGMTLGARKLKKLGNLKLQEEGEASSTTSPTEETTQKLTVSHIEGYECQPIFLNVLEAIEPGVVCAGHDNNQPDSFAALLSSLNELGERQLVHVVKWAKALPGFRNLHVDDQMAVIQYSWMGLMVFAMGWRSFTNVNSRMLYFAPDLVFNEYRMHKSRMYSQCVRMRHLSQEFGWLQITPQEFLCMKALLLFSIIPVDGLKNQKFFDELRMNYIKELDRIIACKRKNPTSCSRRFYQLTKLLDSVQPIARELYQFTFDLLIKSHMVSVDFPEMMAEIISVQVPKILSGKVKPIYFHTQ
As to the kind of experiment: PSA-luc reporter assay in 22Rv1 cells, DHT-induced (endogenous H874Y full-length AR). Format: cell-based. On the technique in general: Reporter assays use an easily measured gene product as a stand-in for the process of interest.

Series [2] is described as follows: MTT assay (cytotoxicity), DU145 cells. Particulars: human, DU145 cells, Table 4.1. In kind it is cell-based. The procedure, abridged: (§1)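 Cells grown in RPMI 1640 with 10% FBS were seeded at 6-7×10^3 per well, left overnight, then exposed to test compounds at designated concentrations or DMSO vehicle for 72 h in fresh medium. Viability was read by MTT; triplicates, repeated at least twice.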
A general note: Tetrazolium assays rely on reduction of a dye to a coloured formazan, in cell work by metabolically active cells.

A short description of series [3]: MTT assay (cytotoxicity), 22Rv1 cells. In kind it is cell-based. The settings on record: human, 22Rv1 cells. The procedure, abridged: as §1
Series [4] can be described thus: MTT assay (cytotoxicity), MB231 cells. Format: cell-based. Particulars: human, 72 h treatment, Table 6.1. Here is the method: (§2) MTT assays: LNCaP, 22Rv1, Du145, H1975, A549, MB231 and MCF-7 cells are maintained in RPMI 1640 supplemented with 10% FBS. Cells were seeded at a density of 6-7×10^3 cells per well in 96-well plates. After overnight incubation, cells in fresh RPMI 1640 supplemented with 10% FBS were exposed to DMSO vehicle control or test compounds at designated concentrations for 72 h. Viable cells were evaluated by MTT assays. Experiments were performed in triplicate and repeated at least twice.

Series [5] in a line: MTT assay (cytotoxicity), H1975 cells. Format: cell-based. The settings on record: human, 72 h treatment, Table 6.1. Here is the method:
as §2

Series [6] can be described thus: MTT assay (cytotoxicity), MCF-7 cells. In kind it is cell-based. The settings on record: human, 72 h treatment, Table 6.1. Here is the method:
as §2

Series [7] is described as follows: MTT assay (cytotoxicity), A549 cells. Format: cell-based. The settings on record: human, 72 h treatment, Table 6.1. The procedure: as §2
Series [8] is described as follows: MTT assay (72 h), liver hepatocellular carcinoma cell line of Table 6.1. Format: cell-based. The settings on record: human, HepG2 cells (liver hepatocellular carcinoma), 72 h treatment, read-out: Cytotoxicity (IC50, μM) HepG2.

Entries after “also recorded” stand apart in the source; their conditions may differ.

As for `O=C(Nc1cccc(C(F)(F)F)c1)Nc1ccc([N+](=O)[O-])c(C(F)(F)F)c1` [Compound 442], the “apoptosis in 22Rv1 cells” value in the series with 22Rv1 cells is “induced apoptosis”.
Take `N#Cc1ccc(NC(=O)Nc2cccc(C(F)(F)F)c2)cc1C(F)(F)F` [Compound 467]: in the series with 22Rv1 cells, the “apoptosis in 22Rv1 cells” value is reported as “induced apoptosis”.
As to `O=C(N/C=C/c1cccc(C(F)(F)F)c1)Nc1ccncn1` [Compound 562], the melting point – broadly, the temperature of the solid-liquid transition – was in the range of 213 to 215 °C. Further, in [1] (10 nM DHT, 24 h), the “inhibition of DHT-induced AR activation in 22Rv1 cells (PSA-luc)” value is on record as “good activity”.
Consider `O=C(Nc1ccc(Br)nc1)Nc1cc(C(F)(F)F)cc(C(F)(F)F)c1` [Compound 566], for which the IC50 (as a rule, the concentration that inhibits the measured activity by half) at 72 h in [2] was 1.7 µM; in series [3] (72 h, Table 4.1), 1.1 µM.
As for `O=C(Nc1cccc(C(F)(F)F)c1)Nc1ccc(NC(=O)c2ccccc2F)c(C(F)(F)F)c1` [Compound 746], the IC50 at 72 h was 4.6 µM in series [4]; 2.5 µM in series [5]; 2.2 µM in series [3] (72 h treatment, Table 6.1); 2.5 µM in series [6]; 2.4 µM in series [7]; 1.2 µM in series [8]. Besides, the “inhibition of DHT-induced AR activation in 22Rv1 cells (PSA-luc)” value in series [1] (10 nM DHT, 24 h) is reported as “suppressed; also recorded: good activity”; in series [1] (1 μM) it was “showed inhibitory activity”.

These data come from patent publication US20170273922A1, “UREA AND BIS-UREA BASED COMPOUNDS AND ANALOGUES THEREOF USEFUL IN THE TREATMENT OF ANDROGEN RECEPTOR MEDIATED DISEASES OR DISORDERS” (THE ROYAL INSTITUTION FOR THE ADVACEMENT OF LEARNING/MCGILL …, priority 2014, published 2017).
